Literature values as cited in patent US20040147490A1, “2-Amino-propanol derivatives” (priority 2001, published 2004).

Conditions: comparison substance

## CCCCCCCCCCCCC/C=C/[C@@H](O)[C@@H](N)COP(=O)(O)O [sphingosine-1 phosphate]
  negative chronotropic effects: negative chronotropic effects
